Assay type in all cases: cell-based, human
Assay [1] deals with HUVECs. The experiment in a line: HUVEC proliferation in 3D PEG hydrogel array spots (Click-iT EdU). The note with it: 10 μM SU5416, 24 hours. On the procedure: (§1) During proliferation and tubulogenesis experiments, the arrays of encapsulated cells were cultured in growth medium alone or with 10 μM SU5416 for 24 hours only. Afterward, the cells were incubated for 5 hours in growth medium with 20 μM 5-ethynyl-2′-deoxyuridine (EdU) (Invitrogen) as a proliferation marker and, if appropriate, 10 μM SU5416. Afterward, the arrays were stained with Cell Tracker Green in the same manner as the viability assay, but without Hoechst nuclear stain or ethidium homodimer. The arrays were washed with 1×PBS, fixed for 30 minutes in 10% buffered formalin and stained using the Click-iT EdU 594 proliferation kit (Invitrogen). The staining procedure was slightly modified from the manufacturer's instructions, as Alexa Fluor® 594 was diluted to half the recommended concentration. The arrays were soaked in 1×PBS overnight and photographed using a Nikon TE300 fluorescence microscope. Proliferation was quantified by counting the number of EdU-positive cells and dividing by the total number of nuclei in the post. Tubulogenesis was quantified by manually measuring total capillary-like structure (CLS) length in each post as labeled by Cell Tracker Green. To obtain confocal microscopy images, the hydrogel arrays were mounted in Prolong Gold antifade solution (Invitrogen) and photographed on a Nikon A1R-Si confocal microscope.

In assay [2] the test system is HUVECs. Kind of assay: HUVEC proliferation with VEGFR2 inhibition on tissue culture polystyrene (EdU). As to conditions: 10 μM SU5416, HUVECs on TCPS, 24 hours.
Method: HUVECs were plated in tissue culture polystyrene (TCPS) 24-well plates at a density of 5.0×10^4 cells/cm^2. The cells were grown in growth medium alone or with 10 μM SU5416 for 24 hours. Afterward, the medium was changed to fresh growth medium with or without 10 μM SU5416 and 20 μM EdU. After 5 hours of incubation, the cells were fixed in 10% buffered formalin for 30 minutes and stained using the Click-iT EdU 488 proliferation kit (Invitrogen). The staining procedure was slightly modified from the manufacturer's instructions, as Alexa Fluor® 488 was diluted to half the recommended concentration. The cells were photographed using a Nikon TE300 fluorescence microscope and proliferation was quantified via by counting nuclei staining positive for EdU and normalizing the number to total nuclei.
For assay [3], the system named is HUVECs. The experiment in a line: HUVEC viability in 3D PEG hydrogel array spots. The note with it: 10 μM SU5416, 48 hours. The procedure: During hydrogel array fabrication, hydrogel spots contained HUVECs at a density of 2×10^7 cells/mL. The concentration of CRGDS adhesion peptide (SEQ ID NO:2) was adjusted to 0, 0.25, 0.5, 1.0 and 2.0 mM through the addition of PEGNB-CRGDS (SEQ ID NO:2), with the total pendant peptide concentration in all hydrogel spots maintained at 2 mM by adding PEGNB-CRDGS (SEQ ID NO:2). Total polymer percent weight was varied between 4.2, 5 and 7% w/v in the hydrogel spots and 4, 6 and 8% w/v in the backgrounds, with low percent weight hydrogel spots corresponding to low weight percent backgrounds and high percent weight hydrogel spots corresponding to high percent weight backgrounds. During viability experiments, arrays of encapsulated cells were cultured for 48 hours in growth medium alone or with 10 μM SU5416 (Sigma Aldrich), a known inhibitor of VEGFR2 signaling. Medium was replaced 24 hours after encapsulation. After 48 hours of culture, the arrays were washed with serum-free M199 and stained with 5 μM Cell Tracker Green (Invitrogen) for 45 minutes in M199. After 15 minutes of staining, the staining solution was supplemented with Hoechst nuclear stain (Invitrogen) to achieve a final concentration of 10 μg/mL. After staining, the arrays were washed with serum free M199 and incubated for 30 minutes in growth medium containing 2 μM ethidium homodimer (Invitrogen). The arrays were then washed with 1×PBS and fixed for 30 minutes in 10% buffered formalin (Fisher). The arrays were soaked in 1×PBS overnight and photographed using a Nikon TE300 fluorescence microscope within 48 hours of fixation. Viability was quantified by dividing the number of live cell nuclei by total nuclei in the post.

Assay [4] has as its system HUVECs. The experiment in a line: HUVEC tubulogenesis (total CLS length) in 3D PEG hydrogel array spots. The note with it: 10 μM SU5416, 24 hours. On the procedure:
as §1
Hydrogel solutions were created by combining 36, 42 or 60 mg/mL 20 kDa 8-arm norbornene-functionalized PEG with 0 to 2 mM CRGDS (SEQ ID NO:2) adhesion peptide, additional CRDGS (SEQ ID NO:32) scrambled adhesion peptide to maintain a total adhesion peptide concentration of 2 mM, […] (SEQ ID NO:27) crosslinking peptide at a 2× molar excess concentration to PEG and 0.05% IRGACURE 2959 photoinitiator in phosphate buffered saline. The solutions were polymerized into hydrogels under UV light (90 mW/cm^2, 365 nm, 2 seconds). HUVECs were encapsulated at a density of 2.0×10^7 […] in hydrogels and incubated in M199 supplemented with EGM2 growth supplement. The cells were stained with Cell Tracker Green CMFDA, photographed 24 hours after seeding and scored for total tubule length in the spots. Results are shown FIGS. 18, 28 and 29.

Assay [5] concerns HUVECs. Kind of assay: HUVEC tubulogenesis in growth factor-reduced MATRIGEL spots. The note with it: 10 μM SU5416, HUVECs in growth factor-reduced MATRIGEL, 48 hours. The procedure: HUVECs were suspended in growth factor-reduced MATRIGEL® (BD Biosciences, San Jose, Calif.) at a density of 2×10^7 cells/mL. A 200 μm thick PDMS sheet of microwells was placed on top of a glass slide and the MATRIGEL®-cell suspension was pipetted as 0.4 μl droplets into the microwells. These arrays of MATRIGEL® “spots” were incubated at 37° C. for 30 minutes and covered in growth medium alone or with 10 μM SU5416. After 48 hours of culture, the arrays were stained with Cell Tracker Green in the same manner as in the PEG hydrogel viability assay, but without Hoechst nuclear stain or ethidium homodimer. The arrays were washed with 1×PBS and fixed for 30 minutes in 10% buffered formalin. A green fluorescence and phase contrast z-stack image of each spot was taken at 48 hours after encapsulation using a Nikon TI Eclipse microscope. Total CLS length in each individual spot was quantified manually.

On to `Cc1cc(C)c(/C=C2\C(=O)Nc3ccccc32)[nH]1` [SU5416], for which the “effect of VEGFR2 inhibition on proliferation” value in assay [1] (high modulus, 0 mM CRGDS) was “significant increase in proliferation”; in assay [1] (high modulus, all CRGDS concentrations except 0 mM), “significant decreases in proliferation”; in assay [1] (low modulus, 0, 0.25 and 1 mM CRGDS), “significant decrease”; in assay [1] (low modulus, 2 mM CRGDS), “increased significantly”; in assay [1] (medium modulus, 0.5 and 2 mM CRGDS), “significant proliferation decreases”. Moreover, the “effect of VEGFR2 inhibition on HUVEC proliferation” value in assay [1] (majority of hydrogel conditions) is recorded as “decreased”. Besides, the “decrease in proliferation compared to the growth medium control” value in assay [2] turned out to be 20%. Further, the “reduction of viability with VEGFR2 inhibition” value in assay [3] (all modulus conditions, spots with 2 mM CRGDS) is “insignificant”. For the same compound, the “effect of VEGFR2 inhibition on cell viability” value in assay [3] (conditions without CRGDS) is reported as “significantly reduced”. Moreover, in assay [3] (high modulus, CRGDS at or above 0.5 mM), the “effect of VEGFR2 inhibition on viability” value was “not significant”. In addition, the “effect of VEGFR2 inhibition on CLS length” value was “decreased CLS length” in assay [4] (high modulus, 1 mM CRGDS spots); “increased CLS length” in assay [4] (low modulus, 2 mM CRGDS spots); “decreased CLS length” in assay [4] (medium modulus, 0 mM CRGDS spots). Also, the “effect of VEGFR2 inhibition on CLS length compared to growth medium controls” value in assay [4] (most hydrogel conditions) was “did not cause significant changes”. In addition, the “decrease in total tubule length compared to growth medium only” value in assay [5] was 50%.

The values are drawn from patent US9688957B2, “Hydrogel compositions for use in promoting tubulogenesis” (Wisconsin Alumni Research Foundation, priority 2014, dated 2017).
